Measurements: US7322965B2, “Infection-resistant medical devices” (priority 2002, dated 2008)
Values after ≈ are worked out from the molar mass of the structure shown. Where two headings read alike, the source gives them in different places. Marks after values point to notes of the source that are not given here.

Tests used:
Assay type in all cases: cell-based
S. epidermidis UC-20208 [1] = test: Time course adherence assay (prophylactic and delayed treatment); conditions: for inhibition at 1 µg/mL / inhibition at 2 µg/mL / inhibition at 4 µg/mL / inhibition at 8 µg/mL: Staphylococcus epidermidis, read-out: Percent inhibition of bacterial adherence relative to controls; for Mean OD550: UC-20208
Experimental: (§1) Drug effects on bacterial adherence were measured 18 hours after treatment initiation using a quantitative spectrophotometric assay.
(§2) Relative inhibition of adherence was expressed by the following equation: (OD of control well−OD of treated well/OD of control well)×100, where OD is the mean optical density of six replicate wells from two separate experiments (three replicates per experiment). Control was defined as infected, drug-free cultures.
(§3) The primary efficacy variable in this study was the measurement of adherent bacteria to polystyrene surfaces after 18 hours to 24 hours of growth. To determine whether statistically significant differences existed between treatments (4×MIC, 2×MIC, MIC, and ½ MIC) compared with the infected-nontreated controls, multiple comparisons according to Dunnett's test (Montgomery, Design and Analysis of Experiments (1991)) were applied for each clinical strain. Differences were considered statistically significant when p<0.05.

S. aureus UC-20206 = test: Microtiter-plate adherence assay on polystyrene; conditions: for Adherence Mean OD550: S. aureus UC-20206, 18 h
Experimental: (§4) Briefly, the inoculum was established by the direct colony suspension method using the Prompt™ Inoculation System (Becton Dickinson, Sparks, Md.). The bacteria suspension, which was equal to the turbidity of a 0.5 McFarland standard, was diluted in TSB to a concentration of 1×10^6 colony forming units per ml (CFU/mL). One hundred microliters of the cell suspension was added to flat-bottom polystyrene wells (Corning Costar, Corning, N.Y.) containing 100 μl of TSB, with and without drug. The final inoculum concentration per well was approximately 5×10^5 CFU/mL. The plates were incubated at 37° C. under static conditions in air. At 18 hours (h) post-infection, the optical density of bacterial growth was measured at a wavelength of 595 nm in a microtiter plate reader (Vmax; Molecular Devices, Sunnyvale, Calif.). […] Adherent “sessile” cells then were fixed with 3.7% (v/v) formaldehyde/2% (w/v) sodium acetate and stained with 0.1% (w/v) crystal violet. Excess stain was rinsed off with deionized water and the plates were air-dried for 4 h. The optical density of bacterial adherence was determined at a wavelength of 550 nm. Preliminary studies were performed to determine the optimal wavelengths for measuring growth turbidity and stained adherent cells (data not shown). To compensate for background absorbance, optical density readings from wells treated with sterile medium, fixative and stain as described above were averaged and then subtracted from all test and control wells. Relative inhibition of adherence or growth was expressed by the following equation: (OD of control well−OD of treated well/OD of control well)×100, where OD is the mean optical density of six replicate wells from two separate experiments (three replicates per experiment). Control was defined as infected, drug-free cultures.
(§5) The primary efficacy variable in this study was the measurement of adherent bacterial cells to polystyrene after 18 h of growth. To determine whether statistically significant differences existed between treatment groups (MIC, ½ MIC, and ¼ MIC) compared with the infected-nontreated controls, the Kruskal-Wallis one-way analysis of variance (ANOVA) was applied for each clinical strain. Statistical significance was defined as p-values ≦0.05. An asterisk (*) was placed by all test values less than or equal to the specified significance level.

S. aureus UC-20205 = test: Microtiter-plate adherence assay on polystyrene; conditions: for Adherence Mean OD550: S. aureus UC-20205, 18 h
Experimental: as §4, §5

S. epidermidis UC-20208 [2] = test: Microtiter-plate adherence assay on polystyrene; conditions: for Adherence Mean OD550: S. epidermidis UC-20208, 18 h
Experimental: as §4, §5

S. epidermidis UC-20207 = test: Determination of minimum inhibitory concentration (microdilution); conditions: Staphylococcus epidermidis, UC20207, 18 h, read-out: MIC (minimum inhibitory concentration)
S. hominis SP-2 = test: as above; conditions: Staphylococcus hominis, SP2, 18 h, read-out: MIC (minimum inhibitory concentration)
[3] = system: S. epidermidis isolates (UC-20207, UC-20208, and RP62A); test: Time course adherence assay, summary over three S. epidermidis isolates
Experimental: as §1, §2, §3

[4] = Staphylococcus aureus, UC20206, 18 h, read-out: Adherence % Inhibition
[5] = Staphylococcus aureus, UC20205, 18 h, read-out: Adherence % Inhibition
[6] = Staphylococcus epidermidis, UC20208, 18 h, read-out: Adherence % Inhibition

`CN[C@H](CC(C)C)C(=O)N[C@H]1C(=O)N[C@@H](CC(N)=O)C(=O)N[C@H]2C(=O)N[C@H]3C(=O)N[C@H](C(=O)N[C@H](C(=O)O)c4cc(O)cc(O)c4-c4cc3ccc4O)[C@H](O)c3ccc(c(Cl)c3)Oc3cc2cc(c3O[C@@H]2O[C@H](CO)[C@@H](O)[C@H](O)[C@H]2O[C@H]2C[C@](C)(N)[C@H](O)[C@H](C)O2)Oc2ccc(cc2Cl)[C@H]1O` [Vancomycin] showed an inhibition at 1 µg/mL (S. epidermidis UC-20208 [1]; UC20208, 0 h) of 0%, an inhibition at 2 µg/mL (S. epidermidis UC-20208 [1]; UC20208, 0 h) of 99.9% and an inhibition at 4 µg/mL (S. epidermidis UC-20208 [1]; UC20208, 0 h) of 99.9%. It also gave an inhibition at 8 µg/mL (S. epidermidis UC-20208 [1]; UC20208, 0 h) of 99.9%, an inhibition at 1 µg/mL (S. epidermidis UC-20208 [1]; UC20208, 2 h) of 0% and an inhibition at 2 µg/mL (S. epidermidis UC-20208 [1]; UC20208, 2 h) of 99.1%. The inhibition at 4 µg/mL (S. epidermidis UC-20208 [1]; UC20208, 2 h) was 100%, the inhibition at 8 µg/mL (S. epidermidis UC-20208 [1]; UC20208, 2 h) was 100% and the inhibition at 1 µg/mL (S. epidermidis UC-20208 [1]; UC20208, 4 h) was 0%. For the same compound, the inhibition at 2 µg/mL (S. epidermidis UC-20208 [1]; UC20208, 4 h) was 0%, the inhibition at 4 µg/mL (S. epidermidis UC-20208 [1]; UC20208, 4 h) was 85.1% and the inhibition at 8 µg/mL (S. epidermidis UC-20208 [1]; UC20208, 4 h) was 99.6%. For the same compound, the inhibition at 1 µg/mL (S. epidermidis UC-20208 [1]; UC20208, 6 h) was 0%, the inhibition at 2 µg/mL (S. epidermidis UC-20208 [1]; UC20208, 6 h) was 0% and the inhibition at 4 µg/mL (S. epidermidis UC-20208 [1]; UC20208, 6 h) was 0%. For the same compound, the inhibition at 8 µg/mL (S. epidermidis UC-20208 [1]; UC20208, 6 h) was 0%, the “Mean OD550” value (S. epidermidis UC-20208 [1]; 1.0 μg/ml, treatment 0 h post-infection) was 1.865 ± 0.309 and the “Mean OD550” value (S. epidermidis UC-20208 [1]; 1.0 μg/ml, treatment 2 h post-infection) was 1.865 ± 0.435. The “Mean OD550” value (S. epidermidis UC-20208 [1]; 1.0 μg/ml, treatment 4 h post-infection) was 1.752 ± 0.566, the “Mean OD550” value (S. epidermidis UC-20208 [1]; 1.0 μg/ml, treatment 6 h post-infection) was 1.127 ± 0.463 and the “Mean OD550” value (S. epidermidis UC-20208 [1]; 2.0 μg/ml (MIC), treatment 0 h post-infection) was 0.001 ± 0.000. The “Mean OD550” value (S. epidermidis UC-20208 [1]; 2.0 μg/ml (MIC), treatment 2 h post-infection) was 0.014 ± 0.036, the “Mean OD550” value (S. epidermidis UC-20208 [1]; 2.0 μg/ml (MIC), treatment 4 h post-infection) was 2.414 ± 0.558 and the “Mean OD550” value (S. epidermidis UC-20208 [1]; 2.0 μg/ml (MIC), treatment 6 h post-infection) was 1.281 ± 0.555. For the same compound, the “Mean OD550” value (S. epidermidis UC-20208 [1]; 4.0 μg/ml, treatment 0 h post-infection) was 0.001 ± 0.001, the “Mean OD550” value (S. epidermidis UC-20208 [1]; 4.0 μg/ml, treatment 2 h post-infection) was 0.000 ± 0.001 and the “Mean OD550” value (S. epidermidis UC-20208 [1]; 4.0 μg/ml, treatment 4 h post-infection) was 0.239 ± 0.261. For the same compound, the “Mean OD550” value (S. epidermidis UC-20208 [1]; 4.0 μg/ml, treatment 6 h post-infection) was 1.555 ± 0.206, the “Mean OD550” value (S. epidermidis UC-20208 [1]; 8.0 μg/ml, treatment 0 h post-infection) was 0.001 ± 0.001 and the “Mean OD550” value (S. epidermidis UC-20208 [1]; 8.0 μg/ml, treatment 2 h post-infection) was 0.000 ± 0.001. The “Mean OD550” value (S. epidermidis UC-20208 [1]; 8.0 μg/ml, treatment 4 h post-infection) was 0.006 ± 0.002, the “Adherence Mean OD550” value (S. aureus UC-20206; drug 0.25 μg/ml) was 0.192 ± 0.020 and the “Adherence Mean OD550” value (S. aureus UC-20206; drug 0.5 μg/ml) was 0.267 ± 0.044. For the same compound, the “Adherence Mean OD550” value (S. aureus UC-20206; drug 1.0 μg/ml) was 0.000 ± 0.003*, the inhibition at 0.25 µg/mL (S. aureus UC-20206; [4]) was 12.5% and the inhibition at 0.5 µg/mL (S. aureus UC-20206; [4]) was 0%. The inhibition at 1 µg/mL (S. aureus UC-20206; [4]) was 9.99%, the “Adherence Mean OD550” value (S. aureus UC-20205; drug 0.25 μg/ml) was 0.730 ± 0.202 and the “Adherence Mean OD550” value (S. aureus UC-20205; drug 0.5 μg/ml) was 0.012 ± 0.013*. The “Adherence Mean OD550” value (S. aureus UC-20205; drug 1.0 μg/ml) was 0.000 ± 0.001*, the inhibition at 0.25 µg/mL (S. aureus UC-20205; [5]) was 0% and the inhibition at 0.5 µg/mL (S. aureus UC-20205; [5]) was 98%. For the same compound, the inhibition at 1 µg/mL (S. aureus UC-20205; [5]) was 100%, the “Adherence Mean OD550” value (S. epidermidis UC-20208 [2]; drug 0.5 μg/ml) was 2.165 ± 0.150 and the “Adherence Mean OD550” value (S. epidermidis UC-20208 [2]; drug 1.0 μg/ml) was 2.716 ± 0.400. For the same compound, the “Adherence Mean OD550” value (S. epidermidis UC-20208 [2]; drug 2.0 μg/ml (MIC)) was 0.000 ± 0.001*, the inhibition at 0.5 µg/mL (S. epidermidis UC-20208 [2]; [6]) was 0% and the inhibition at 1 µg/mL (S. epidermidis UC-20208 [2]; [6]) was 0%. For the same compound, the inhibition at 2 µg/mL (S. epidermidis UC-20208 [2]; [6]) was 100%, the MIC (S. epidermidis UC-20207) was 2 µg/mL (≈ 1.38 µM) and the MIC (S. hominis SP-2) was 1 µg/mL (≈ 0.69 µM). The “activity against cell adhesion” value ([3]; subtherapeutic concentrations (one-half MIC)) was “minimal or no activity against cell adhesion”, the anti-adhesion activity ([3]; therapeutic levels, administered 2 hours post-infection, compared with linezolid) was “equally effective” and the anti-adhesion activity ([3]; treatments delayed by 4 to 6 hours) was “only the highest concentrations (>MIC) demonstrated anti-adhesion activity”.
